The NIST ThermoML archive (doi:10.1021/je700260f)
Numbers after ± are expanded uncertainties.

Conditions: 303.15 K, Liquid, Vibrating tube method

FC(C(F)(F)F)C(F)(F)F [1,1,1,2,3,3,3-heptafluoropropane]
Conditions | mass density [kg/m3]
23528 kPa | 1493.1 ± 1.6
23717 kPa | 1493.9 ± 1.6
23749 kPa | 1494.1 ± 1.6
23780 kPa | 1494.1 ± 1.6
23812 kPa | 1494.2 ± 1.6
23848 kPa | 1494.4 ± 1.6
23884 kPa | 1494.5 ± 1.6
23911 kPa | 1494.7 ± 1.6
23938 kPa | 1494.6 ± 1.6
23969 kPa | 1494.8 ± 1.6
24001 kPa | 1494.9 ± 1.7
24032 kPa | 1495.2 ± 1.7
24063 kPa | 1495.2 ± 1.7
24107 kPa | 1495.5 ± 1.7
24143 kPa | 1495.5 ± 1.7
24178 kPa | 1495.8 ± 1.7
24209 kPa | 1495.8 ± 1.7
24240 kPa | 1495.8 ± 1.7
24271 kPa | 1496.1 ± 1.7
24303 kPa | 1496.1 ± 1.7
24338 kPa | 1496.2 ± 1.7
24370 kPa | 1496.4 ± 1.7
24397 kPa | 1496.4 ± 1.7
24429 kPa | 1496.6 ± 1.7
24461 kPa | 1496.8 ± 1.7
24496 kPa | 1496.7 ± 1.7
24528 kPa | 1497 ± 1.7
24559 kPa | 1497.1 ± 1.7
24590 kPa | 1497.1 ± 1.7
24626 kPa | 1497.4 ± 1.7
24654 kPa | 1497.4 ± 1.7
24682 kPa | 1497.4 ± 1.7
24714 kPa | 1497.6 ± 1.7
24750 kPa | 1497.8 ± 1.7
24778 kPa | 1497.8 ± 1.7
24809 kPa | 1497.9 ± 1.7
24844 kPa | 1498.2 ± 1.7
24868 kPa | 1498.2 ± 1.7
24901 kPa | 1498.4 ± 1.7
24928 kPa | 1498.3 ± 1.7
24952 kPa | 1498.5 ± 1.7
24987 kPa | 1498.7 ± 1.7
25022 kPa | 1498.7 ± 1.7
25049 kPa | 1498.9 ± 1.7
25077 kPa | 1498.9 ± 1.7
25110 kPa | 1499.1 ± 1.7
25135 kPa | 1499.1 ± 1.7
25167 kPa | 1499.3 ± 1.7
25195 kPa | 1499.1 ± 1.7
25223 kPa | 1499.5 ± 1.7
25247 kPa | 1499.5 ± 1.7
25287 kPa | 1499.7 ± 1.7
25310 kPa | 1499.8 ± 1.7
25346 kPa | 1499.9 ± 1.7
25370 kPa | 1499.9 ± 1.7
25411 kPa | 1500.1 ± 1.7
25443 kPa | 1500.1 ± 1.7
25467 kPa | 1500.4 ± 1.7
25503 kPa | 1500.4 ± 1.7
25528 kPa | 1500.5 ± 1.7
25561 kPa | 1500.7 ± 1.7
25602 kPa | 1500.8 ± 1.7
25630 kPa | 1501 ± 1.7
25658 kPa | 1501.1 ± 1.7
25686 kPa | 1501 ± 1.7
25715 kPa | 1501.2 ± 1.7
25740 kPa | 1501.3 ± 1.7
25774 kPa | 1501.4 ± 1.7
25801 kPa | 1501.6 ± 1.7
25837 kPa | 1501.5 ± 1.7
25858 kPa | 1501.5 ± 1.7
25891 kPa | 1501.9 ± 1.7
25911 kPa | 1501.9 ± 1.7
25944 kPa | 1502 ± 1.7
25972 kPa | 1502.1 ± 1.7
26000 kPa | 1502.2 ± 1.7
26025 kPa | 1502.4 ± 1.7
26056 kPa | 1502.4 ± 1.7
26076 kPa | 1502.6 ± 1.7
26109 kPa | 1502.6 ± 1.7
26134 kPa | 1502.8 ± 1.7
26158 kPa | 1502.9 ± 1.7
26191 kPa | 1502.9 ± 1.7
26216 kPa | 1502.9 ± 1.7
26252 kPa | 1503 ± 1.7
26284 kPa | 1503.3 ± 1.7
26307 kPa | 1503.3 ± 1.7
26336 kPa | 1503.4 ± 1.7
26361 kPa | 1503.5 ± 1.7
26394 kPa | 1503.6 ± 1.7
26418 kPa | 1503.8 ± 1.7
26512 kPa | 1503.9 ± 1.7
26545 kPa | 1504.1 ± 1.7
26714 kPa | 1504.6 ± 1.7
26743 kPa | 1504.8 ± 1.7
26776 kPa | 1504.9 ± 1.7
26801 kPa | 1505.1 ± 1.7
26834 kPa | 1505.2 ± 1.7
26858 kPa | 1505.2 ± 1.7
26891 kPa | 1505.3 ± 1.7
26924 kPa | 1505.5 ± 1.7
26948 kPa | 1505.5 ± 1.7
26981 kPa | 1505.7 ± 1.7
27006 kPa | 1505.7 ± 1.7
27035 kPa | 1505.9 ± 1.7
27060 kPa | 1506 ± 1.7
27246 kPa | 1506.5 ± 1.7
27275 kPa | 1506.7 ± 1.7
27304 kPa | 1506.8 ± 1.7
27334 kPa | 1506.8 ± 1.7
27368 kPa | 1507.1 ± 1.7
27464 kPa | 1507.4 ± 1.7
28427 kPa | 1510.7 ± 1.7
28456 kPa | 1510.8 ± 1.7
28486 kPa | 1510.9 ± 1.7
28516 kPa | 1510.9 ± 1.7
28541 kPa | 1511.1 ± 1.7
28576 kPa | 1511.2 ± 1.7
28601 kPa | 1511.3 ± 1.7
28636 kPa | 1511.4 ± 1.7
28661 kPa | 1511.3 ± 1.7
28700 kPa | 1511.5 ± 1.7
28729 kPa | 1511.7 ± 1.7
28768 kPa | 1511.7 ± 1.7
28793 kPa | 1511.8 ± 1.7
28832 kPa | 1512 ± 1.7
28858 kPa | 1512.2 ± 1.7
28893 kPa | 1512.3 ± 1.7
28924 kPa | 1512.3 ± 1.7
28967 kPa | 1512.6 ± 1.7
28997 kPa | 1512.6 ± 1.7
29020 kPa | 1512.7 ± 1.7
29047 kPa | 1512.7 ± 1.7
29074 kPa | 1512.8 ± 1.7
29113 kPa | 1513 ± 1.7
29139 kPa | 1513 ± 1.7
29169 kPa | 1513 ± 1.7
29196 kPa | 1513.3 ± 1.7
29235 kPa | 1513.4 ± 1.7
29267 kPa | 1513.4 ± 1.7
29298 kPa | 1513.6 ± 1.7
29323 kPa | 1513.6 ± 1.7
29349 kPa | 1513.7 ± 1.7
29389 kPa | 1513.9 ± 1.7
29429 kPa | 1514.1 ± 1.7
29461 kPa | 1514.1 ± 1.7
29492 kPa | 1514.2 ± 1.7
29527 kPa | 1514.4 ± 1.7
29554 kPa | 1514.5 ± 1.7
29584 kPa | 1514.6 ± 1.7
29614 kPa | 1514.7 ± 1.7
29645 kPa | 1514.6 ± 1.7
29676 kPa | 1514.8 ± 1.7
29706 kPa | 1515 ± 1.7
29746 kPa | 1515 ± 1.7
29773 kPa | 1515.3 ± 1.7
29800 kPa | 1515.3 ± 1.7
29831 kPa | 1515.3 ± 1.7
29866 kPa | 1515.5 ± 1.7
29892 kPa | 1515.6 ± 1.7
29927 kPa | 1515.6 ± 1.7
29953 kPa | 1515.7 ± 1.7
29984 kPa | 1515.8 ± 1.7
30015 kPa | 1516 ± 1.7
30043 kPa | 1516.2 ± 1.7
30079 kPa | 1516.2 ± 1.7
30110 kPa | 1516.3 ± 1.7
30145 kPa | 1516.4 ± 1.7
30176 kPa | 1516.5 ± 1.7
30211 kPa | 1516.5 ± 1.7
30247 kPa | 1516.7 ± 1.7
30277 kPa | 1516.8 ± 1.7
30316 kPa | 1516.9 ± 1.7
30341 kPa | 1516.9 ± 1.7
30376 kPa | 1517.1 ± 1.7
30406 kPa | 1517.2 ± 1.7
30437 kPa | 1517.3 ± 1.7
30464 kPa | 1517.4 ± 1.7
30502 kPa | 1517.5 ± 1.7
30529 kPa | 1517.6 ± 1.7
30561 kPa | 1517.7 ± 1.7
30597 kPa | 1517.8 ± 1.7
30619 kPa | 1518 ± 1.7
30655 kPa | 1518.1 ± 1.7
30678 kPa | 1518.1 ± 1.7
30713 kPa | 1518.1 ± 1.7
30735 kPa | 1518.4 ± 1.7
30769 kPa | 1518.4 ± 1.7
30805 kPa | 1518.6 ± 1.7
30842 kPa | 1518.6 ± 1.7
30873 kPa | 1518.8 ± 1.7
30910 kPa | 1518.8 ± 1.7
30945 kPa | 1518.9 ± 1.7
30977 kPa | 1519.1 ± 1.7
31009 kPa | 1519 ± 1.7
31044 kPa | 1519.2 ± 1.7
31076 kPa | 1519.4 ± 1.7
31117 kPa | 1519.6 ± 1.7
31149 kPa | 1519.7 ± 1.7
31186 kPa | 1519.7 ± 1.7
31223 kPa | 1519.8 ± 1.7
31256 kPa | 1519.8 ± 1.7
31292 kPa | 1519.9 ± 1.7
31319 kPa | 1520.1 ± 1.7
31351 kPa | 1520.3 ± 1.7
